# According to patent publication US12662489B2 (Sitryx Therapeutics Limited, priority 2023, dated 2026):
# What was measured:
# human CD4+ T cells = test: Human CD4+ T-cell proliferation assay (CFSE, CD3/28 beads); settings: read-out: Proliferation IC50
# Method: Cells were incubated at room temperature for 8 minutes in a rotator in the dark. 13 mL cRPMI was added to each tube and cells were centrifuged at 500×g for 4 minutes at room temperature before pellets were resuspended in 10 mL cRPMI. Cells were counted using the Auto2000 Cellometer and AO/PI viability stain and concentration adjusted to 0.6×10^6 cells/mL in cRPMI. […] Control wells were included for flow cytometry and edge wells were filled with 200 μL 1×dPBS. Cells were incubated at 37° C., 5% CO2 for 2 days before compound treatment. […] Cells were incubated at 37° C., 5% CO2 for a further 2 days prior to flow staining and supernatant harvest.
# On the final day plates were centrifuged at 500×g for 4 minutes at room temperature. 125 μL of supernatants were transferred to a V bottom 96 well polystyrene plate and stored at −80° C. Plates were gently vortexed to disrupt the cell pellets before 125 μL 1×PBS was added to each well. Plates were centrifuged at 500×g for 4 minutes at room temperature and supernatants removed from the plates by aspirating. Plates were gently vortexed and 30 μL of live/dead stain (Invitrogen, L34975) in 1×dPBS was added and incubated for 15 minutes in the dark at 4° C. […] 100 μL of flow cytometry buffer was added and plates were centrifuged at 500×g for 4 minutes before supernatants were aspirated from the plates. Wells were resuspended in 200 μL flow cytometry buffer and plates stored at 4° C. before being run on the flow cytometer.
# Data was analysed using FlowJo and the compensation matrix applied to all samples. The gates were set using unstained and unstimulated samples.
# [1] = molecular target: T1, MTHFD1 recombinant human enzyme (Homo sapiens, UniProt P11586); test: MTHFD1 inhibition assay (NAD(P)H-Glo luminescence); settings: MTHFD1 IC50, recombinant human enzyme 200 nM, NADP, band
# T1 sequence (P11586 2-291 limits assumed): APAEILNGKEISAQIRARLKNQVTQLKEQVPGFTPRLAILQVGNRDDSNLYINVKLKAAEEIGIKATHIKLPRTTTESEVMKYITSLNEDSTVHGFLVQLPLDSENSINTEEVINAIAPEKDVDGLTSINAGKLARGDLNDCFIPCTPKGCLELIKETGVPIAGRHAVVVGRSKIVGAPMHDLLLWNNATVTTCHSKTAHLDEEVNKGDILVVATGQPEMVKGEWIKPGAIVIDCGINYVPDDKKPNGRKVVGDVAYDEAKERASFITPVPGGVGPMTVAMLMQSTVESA
# [2] = molecular target: T2, human α4β2 neuronal nicotinic receptor (Homo sapiens, UniProt P17787+P43681); test: α4β2 neuronal nicotinic receptor assay (agonist radioligand, [3H]cytisine); assay type: binding; settings: transfected SH-SY5Y cell membranes, 0.6 nM [3H]cytisine, band
# T2 construct: host or cells: SH-SY5Y cells (membrane homogenates)
# T2 sequence (P43681 29-627 limits assumed): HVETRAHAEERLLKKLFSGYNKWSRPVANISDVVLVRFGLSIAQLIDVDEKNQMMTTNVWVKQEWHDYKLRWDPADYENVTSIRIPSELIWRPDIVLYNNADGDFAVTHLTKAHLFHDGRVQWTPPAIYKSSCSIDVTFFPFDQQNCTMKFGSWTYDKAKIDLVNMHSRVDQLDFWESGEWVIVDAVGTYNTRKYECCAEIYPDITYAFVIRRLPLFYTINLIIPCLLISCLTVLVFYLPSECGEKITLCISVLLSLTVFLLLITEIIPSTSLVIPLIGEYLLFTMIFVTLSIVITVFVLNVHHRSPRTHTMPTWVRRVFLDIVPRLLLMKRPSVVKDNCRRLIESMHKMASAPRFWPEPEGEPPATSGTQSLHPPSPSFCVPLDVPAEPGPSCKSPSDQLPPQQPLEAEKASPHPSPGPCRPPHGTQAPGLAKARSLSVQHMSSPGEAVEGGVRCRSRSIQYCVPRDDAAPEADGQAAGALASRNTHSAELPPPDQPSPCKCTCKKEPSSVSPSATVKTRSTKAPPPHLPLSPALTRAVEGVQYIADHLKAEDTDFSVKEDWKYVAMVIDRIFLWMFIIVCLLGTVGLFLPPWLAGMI
# T2 sequence (P17787 26-502): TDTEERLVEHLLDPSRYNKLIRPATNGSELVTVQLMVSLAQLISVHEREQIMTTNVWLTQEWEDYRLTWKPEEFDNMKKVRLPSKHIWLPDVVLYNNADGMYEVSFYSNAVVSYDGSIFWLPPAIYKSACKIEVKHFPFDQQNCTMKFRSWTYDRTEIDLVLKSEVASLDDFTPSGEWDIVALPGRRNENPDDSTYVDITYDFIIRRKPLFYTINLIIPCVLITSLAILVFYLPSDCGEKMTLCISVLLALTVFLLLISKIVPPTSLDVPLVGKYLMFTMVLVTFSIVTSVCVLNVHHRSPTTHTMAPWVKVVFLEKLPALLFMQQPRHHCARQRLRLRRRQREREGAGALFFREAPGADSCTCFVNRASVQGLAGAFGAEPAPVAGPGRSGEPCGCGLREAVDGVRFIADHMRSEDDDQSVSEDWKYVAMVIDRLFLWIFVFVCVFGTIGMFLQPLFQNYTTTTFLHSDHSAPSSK
# Method: Cell membrane homogenates (30 μg protein) were incubated for 120 min at 4° C. with 0.6 nM [3H]cytisine in the absence or presence of the test compound in a buffer containing 50 mM Tris-HCl (pH 7.4), 120 mM NaCl, 5 mM KCl, 2.5 mM CaCl2 and 1 mM MgCl2. Nonspecific binding was determined in the presence of 10 μM nicotine bitartrate. Following incubation, the samples were filtered rapidly under vacuum through glass fiber filters (GF/B, Packard) presoaked with 0.3% PEI and rinsed several times with ice-cold 50 mM Tris-HCl using a 96-sample cell harvester (Unifilter, Packard).
# The filters were dried then counted for radioactivity in a scintillation counter (Topcount, Packard) using a scintillation cocktail (Microscint 0, Packard). The results were expressed as a percent inhibition of the control radioligand specific binding. The standard reference compound was nicotine bitartrate.
# A number of example compounds of formula (I) were tested to evaluate their affinity for the human α4β2 neuronal nicotinic receptor expressed in transfected SH-SY5Y cells, determined in a radioligand binding assay.
# [3] = molecular target: T3, MTHFD2 recombinant human enzyme (Homo sapiens, UniProt P13995); test: MTHFD2 inhibition assay (NAD(P)H-Glo luminescence); settings: for MTHFD1/MTHFD2 IC50 ratio: selectivity of MTHFD2 inhibition over MTHFD1, band
# T3 sequence (P13995 36-350): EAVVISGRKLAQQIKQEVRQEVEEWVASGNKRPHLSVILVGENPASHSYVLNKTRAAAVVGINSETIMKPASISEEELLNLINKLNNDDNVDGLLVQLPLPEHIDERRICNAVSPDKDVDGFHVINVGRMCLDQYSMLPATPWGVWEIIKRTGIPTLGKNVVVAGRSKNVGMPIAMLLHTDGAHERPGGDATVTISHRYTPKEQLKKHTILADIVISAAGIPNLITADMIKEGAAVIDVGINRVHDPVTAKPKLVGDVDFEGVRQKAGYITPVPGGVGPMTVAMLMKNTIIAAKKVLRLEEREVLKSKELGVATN
# murine EAE model = settings: cited from earlier work
# CD4+ T-cells = settings: cited from earlier work
# [4] = tested on: murine KLH contact sensitization model; settings: cited from earlier work
Structure (SMILES),IC50 [1] [nM],IC50 [2] [nM],IC50 [3] [nM],MTHFD1/MTHFD2 IC50 ratio [3],IC50 (human CD4+ T cells) [nM],tolerability at the therapeutic doses used (murine EAE model; in vivo),"disease severity and cumulative clinical score compared to vehicle (murine EAE model; mice, oral, day 4 to day 26)","immune cell infiltrate into the spinal cord (murine EAE model; mice, oral, day 4 to day 26)",number of Th1 and Th17 cells differentiated in vitro from CD4+ T-cells and expression of the respective Th1 and Th17 cytokines (CD4+ T-cells),IFNγ and IL-17 (CD4+ T-cells; in vitro),immune-suppressive Treg cells (CD4+ T-cells; in vitro),tolerability at the therapeutic doses used ([4]; in vivo),ear-swelling ([4]; murine KLH contact sensitization model)
"COC[C@H]1CN(c2cc(C)c3c4c(c(=O)oc3c2C)CN(C(=O)c2ccc(C(=O)NS(=O)(=O)N3CCCC3)c(OC3CCC3)c2)CC4)CCN1C [Example 1, (R)-2-cyclobutoxy-4-(8-(3-(methoxymethyl)-4-methylpiperazin-1-yl)-7,10-dimethyl-5-oxo-1,3,4,5-tetrahydro-2H-chromeno[3,4-c]pyridine-3-carbonyl)-N-(pyrrolidin-1-ylsulfonyl)benzamide]",100 to 1000,2000 to 20000,100 to 1000,F (<3),1 to 10,,,,,,,,
Nc1nc2c(c(=O)[nH]1)N1C(=O)N(c3ccc(C(=O)N[C@@H](CCC(=O)O)C(=O)O)cc3)CC1CN2 (stereo partly drawn) [LY345899],,,,,,well tolerated,significantly reduced,reduced,,,,,
"COC[C@@H]1CN(c2cc(C)c3c4c(c(=O)oc3c2C)CN(C(=O)c2ccc(C(=O)NS(=O)(=O)N3CCCC3)c(OC3CCC3)c2F)CC4)CCN1C [Example 174, (S)-2-cyclobutoxy-3-fluoro-4-(8-(3-(methoxymethyl)-4-methylpiperazin-1-yl)-7,10-dimethyl-5-oxo-1,3,4,5-tetrahydro-2H-chromeno[3,4-c]pyridine-3-carbonyl)-N-(pyrrolidin-1-ylsulfonyl)benzamide]",100 to 1000,20000 to 100000,10 to 100,G (^ 3 to 9.0),10 to 30,,,,,,,,
"COC[C@H]1CN(c2ccc3c4c(c(=O)oc3c2C)CN(C(=O)c2ccc(C(=O)NS(=O)(=O)N3CCCC3)c(OC3CCC3)c2F)CC4)CCN1C [Example 54, (R)-2-cyclobutoxy-3-fluoro-4-(8-(3-(methoxymethyl)-4-methylpiperazin-1-yl)-7-methyl-5-oxo-1,3,4,5-tetrahydro-2H-chromeno[3,4-c]pyridine-3-carbonyl)-N-(pyrrolidin-1-ylsulfonyl)benzamide]",10 to 100,> 100000,10 to 100,F (<3),10 to 30,,,,,,,,
"COC[C@H]1CN(c2cc(C)c3c4c(c(=O)oc3c2C)CN(C(=O)c2cc(N(C)C)c(C(=O)NS(=O)(=O)C3(C)CC3)cc2F)CC4)CCN1C [Example 145, (R)-2-(dimethylamino)-5-fluoro-4-(8-(3-(methoxymethyl)-4-methylpiperazin-1-yl)-7,10-dimethyl-5-oxo-1,3,4,5-tetrahydro-2H-chromeno[3,4-c]pyridine-3-carbonyl)-N-((1-methylcyclopropyl)sulfonyl)benzamide]",100 to 1000,> 100000,1 to 10,J (>30),10 to 30,,,,,,,,
Cc1c(N2CCN(C)[C@@H](C)C2)ccc2c3c(c(=O)oc12)CN(C(=O)c1ccc(NS(C)(=O)=O)c(OC(F)(F)F)c1)CC3 [DS18561882],,,,,,,,,greatly decreased,significantly reduced,increased,well tolerated,could reduce ear-swelling
"COC[C@H]1CN(c2cc(C)c3c4c(c(=O)oc3c2C)CN(C(=O)c2ccc(C(=O)NS(=O)(=O)N3CCCC3)c(OC3CCC3)c2F)CC4)CCN1C [Example 3, (R)-2-cyclobutoxy-3-fluoro-4-(8-(3-(methoxymethyl)-4-methylpiperazin-1-yl)-7,10-dimethyl-5-oxo-1,3,4,5-tetrahydro-2H-chromeno[3,4-c]pyridine-3-carbonyl)-N-(pyrrolidin-1-ylsulfonyl)benzamide]",10 to 100,20000 to 100000,10 to 100,F (<3),1 to 10,,,,,,,,

# Second part, led by results:
IC50 [1] [nM],IC50 [2] [nM],IC50 [3] [nM],MTHFD1/MTHFD2 IC50 ratio [3],Structure (SMILES),IC50 (human CD4+ T cells) [nM],tolerability at the therapeutic doses used (murine EAE model; in vivo),"disease severity and cumulative clinical score compared to vehicle (murine EAE model; mice, oral, day 4 to day 26)","immune cell infiltrate into the spinal cord (murine EAE model; mice, oral, day 4 to day 26)",number of Th1 and Th17 cells differentiated in vitro from CD4+ T-cells and expression of the respective Th1 and Th17 cytokines (CD4+ T-cells),IFNγ and IL-17 (CD4+ T-cells; in vitro),immune-suppressive Treg cells (CD4+ T-cells; in vitro),tolerability at the therapeutic doses used ([4]; in vivo),ear-swelling ([4]; murine KLH contact sensitization model)
10 to 100,20000 to 100000,1 to 10,G (^ 3 to 9.0),"CCOc1c(C(=O)NS(=O)(=O)N2CCCC2)ccc(C(=O)N2CCc3c(c(=O)oc4c(C)c(N5CCN(C)[C@@H](COC)C5)cc(C)c34)C2)c1F [Example 147, (R)-2-ethoxy-3-fluoro-4-(8-(3-(methoxymethyl)-4-methylpiperazin-1-yl)-7,10-dimethyl-5-oxo-1,3,4,5-tetrahydro-2H-chromeno[3,4-c]pyridine-3-carbonyl)-N-(pyrrolidin-1-ylsulfonyl)benzamide]",1 to 10,,,,,,,,
1000 to 5000,20000 to 100000,10 to 100,J (>30),"COC[C@H]1CN(c2cc(C)c3c4c(c(=O)oc3c2C)CN(C(=O)c2cc(N(C)C)c(C(=O)NS(=O)(=O)N3CCCC3)cc2Cl)CC4)CCN1C [Example 150, (R)-5-chloro-2-(dimethylamino)-4-(8-(3-(methoxymethyl)-4-methylpiperazin-1-yl)-7,10-dimethyl-5-oxo-1,3,4,5-tetrahydro-2H-chromeno[3,4-c]pyridine-3-carbonyl)-N-(pyrrolidin-1-ylsulfonyl)benzamide]",10 to 30,,,,,,,,
100 to 1000,20000 to 100000,1 to 10,J (>30),"COC[C@H]1CN(c2cc(C)c3c4c(c(=O)oc3c2C)CN(C(=O)c2cc(N(C)C)c(C(=O)NS(=O)(=O)N3CCCC3)cc2F)CC4)CCN1C [Example 144, (R)-2-(dimethylamino)-5-fluoro-4-(8-(3-(methoxymethyl)-4-methylpiperazin-1-yl)-7,10-dimethyl-5-oxo-1,3,4,5-tetrahydro-2H-chromeno[3,4-c]pyridine-3-carbonyl)-N-(pyrrolidin-1-ylsulfonyl)benzamide]",1 to 10,,,,,,,,
1000 to 5000,20000 to 100000,10 to 100,J (>30),"COC[C@H]1CN(c2cc(C)c3c4c(c(=O)oc3c2C)CN(C(=O)c2ccc(C(=O)NS(=O)(=O)N3CCCC3)cc2F)CC4)CCN1C [Example 175, (R)-3-fluoro-4-(8-(3-(methoxymethyl)-4-methylpiperazin-1-yl)-7,10-dimethyl-5-oxo-1,3,4,5-tetrahydro-2H-chromeno[3,4-c]pyridine-3-carbonyl)-N-(pyrrolidin-1-ylsulfonyl)benzamide]",1000 to 5000,,,,,,,,
10 to 100,> 100000,10 to 100,G (^ 3 to 9.0),"COC[C@H]1CN(c2cc(C)c3c4c(c(=O)oc3c2C)CN(C(=O)c2ccc(C(=O)NS(=O)(=O)C3(C)CC3)c(N3CCCC3)c2F)CC4)CCN1C [Example 69, (R)-3-fluoro-4-(8-(3-(methoxymethyl)-4-methylpiperazin-1-yl)-7,10-dimethyl-5-oxo-1,3,4,5-tetrahydro-2H-chromeno[3,4-c]pyridine-3-carbonyl)-N-((1-methylcyclopropyl)sulfonyl)-2-(pyrrolidin-1-yl)benzamide]",1 to 10,,,,,,,,
1 to 10,20000 to 100000,1 to 10,F (<3),"COC[C@H]1CN(c2cc(C)c3c4c(c(=O)oc3c2C)CN(C(=O)c2ccc(C(=O)NS(=O)(=O)N3CCCC3)c(OC3CCCC3)c2F)CC4)CCN1C [Example 4, (R)-2-(cyclopentyloxy)-3-fluoro-4-(8-(3-(methoxymethyl)-4-methylpiperazin-1-yl)-7,10-dimethyl-5-oxo-1,3,4,5-tetrahydro-2H-chromeno[3,4-c]pyridine-3-carbonyl)-N-(pyrrolidin-1-ylsulfonyl)benzamide]",1 to 10,,,,,,,,
